Laboratory results as given in patent publication US20250205361A1, “TREATMENT […] FOR T[…] […] ACT VIA AN INT[…] TARGET” (priority 2023, published 2025).

How the values were obtained:
Ttr RNA = Ttr RNA quantification (qRT-PCR) in murine primary hepatocytes, depot release; assay type: cell-based, mouse; settings: 0.05 nM GN3-siTTR 6 hrs loading, wash, saponin component 48 hrs
Procedure: Wells of a 24- or 96-well plate (Greiner BioOne) were coated overnight at 37° C. with rat collagen-I (Ibidi). Next day the coating solution was removed and the wells were washed 1× with PBS (PAN-Biotech GmbH). Hepatocyte Plating Medium (HPM, […] Cell Culture Technology GmbH) was added using 210 μl or 35 μl per well, per 24-wp or 96-wp respectively. Next, GN3-siTTR/DPBS was dissolved at 10× the final concentration (final concentration is 0.5 nM or 0.05 nM GN3-siTTR, as indicated) and 90 μl or 15 μl was added to each well, per 24-wp or 96-wp respectively. Cryopreserved primary mouse hepatocytes (Cytes Biotechnology) were thawed in Hepatocyte Thawing Medium (HTM, […] Cell Culture Technology GmbH) and collected by centrifugation at 50×g for 10 min. […]
RNA from cells was isolated using TRIzol™ Reagent (Thermo Scientific) according to the manufacturer's instruction. […] Ttr expression levels and levels of specific hepatocyte housekeeping genes were determined using quantitative real-time PCR assays (qRT-PCR) using iTaq™ Universal SYBR® Green Supermix (BioRad) and the Light Cycler 480 II (Roche Diagnostics) with specific DNA primers, listed in Table A2. […]
The timed, saponin-component-inducible release of a nucleic acid from endosomes after prior loading cells with the nucleic acid was also assessed in vitro in murine primary hepatocytes (MPH) in different dosing regimens. […]

A431 cells [1] = test: Cell viability (MTS) of A431 cells with aCD71-SPRN and saponin components; assay type: cell-based, human; settings: for potency of aCD71-SPRN versus co-administration / efficacy enhancement of aCD71-SPRN: 5 pM aCD71-SPRN 24 hr loading, wash; for efficacy enhancement of aCD71-SPRN: 24 hrs resting; for relative cell viability, efficacy of aCD71-SPRN: 5 pM aCD71-SPRN + concentration range of saponin component, 48 hr co-administration
Procedure: Cells were cultured in DMEM (PAN-Biotech GmbH) supplemented with 10% fetal bovine serum (FBS) (PAN-Biotech GmbH) and Pen/Strep (PAN-Biotech GmbH) at 37° C. and 5% CO2. Cells were seeded in a 96-well plate at 5.000-6.000 cells/well in 100 μL/well and incubated overnight at 37° C. […] The medium was removed from the cell culture plate and replaced by 180 μL fresh culture medium, followed by the addition of 20 μL 10× compound-mix/well. PBS treatment served as vehicle control. After 24 hrs treatment, the cells were washed and incubated with medium or medium containing PBS/saponin components for the time indicated in FIG. 6B, 6C, 6D at 37° C. At the end of the experiment at 48 hr after saponin component treatment or PBS treatment the cells were harvested for cell viability analysis. Alternatively, as a positive control, the cells were treated with a co-administration of protein toxin and saponin component (or PBS) mix for 48 hrs without medium change, FIG. 6A.
After treatment cell viability was determined by an MTS-assay, performed according to the manufacturer's instruction (CellTiter 96@AQueous One Solution Cell Proliferation Assay, Promega). Briefly, the MTS solution was diluted 20′ in DMEM without phenol red (PAN-Biotech GmbH) supplemented with 10% FBS. The cells were washed once with 200 μL/PBS well, after which 100 μL diluted MTS solution was added/well. The plate was incubated for approximately 20-30 minutes at 37° C. Subsequently, the OD at 492 nm was measured on a Spectramax iD5 plate reader (Molecular Devices). For quantification the background signal of ‘medium only’ wells was subtracted from all other wells, before the cell viability percentage of treated/untreated cells was calculated, by dividing the background corrected signal of treated wells over the background corrected signal of the untreated wells (×100).
One disadvantage of these types of immunotoxins for clinical use is their relatively narrow therapeutic window and associated potentially life-threatening toxicities at dose levels that are therapeutic. Here, the in vitro efficacy and enhancement of effect durability of an immunotoxin (anti-CD71-saporin, also referred to as aCD71-SPRN, protein toxin) by endosome escape enhancer saponin components was assessed in epidermoid carcinoma cells and metastatic melanoma cells. A concentration range of a saponin component was added either together with a fixed concentration of 5 pM aCD71-SPRN to the cancer cells, or at various time points after the loading of the cancer cells with a fixed concentration of 5 pM aCD71-SPRN (according to dosing schemes in FIG. 6A, 6B, 6C, 6D). As a negative control, cells were loaded with protein toxin according to scheme FIG. 6A-D but received medium with PBS instead of saponin component.

A431 cells [2] = test: Imaging of Cy5 fluorescence release from Cet-Cy5 loaded A431 cells; assay type: cell-based, human; settings: A431 loaded with 2 nM Cet-Cy5 48 hrs, wash, 24 hrs resting, saponin component added at 72 hrs
Procedure: Cells were cultured in DMEM (PAN-Biotech GmbH) supplemented with 10% fetal bovine serum (FBS) (PAN-Biotech GmbH) and Pen/Strep (PAN-Biotech GmbH) at 37° C. and 5% CO2.

[3] = 6 hrs resting, saponin component 48 hrs
[4] = saponin component added directly, 48 hrs

Row | SMILES | remaining Ttr levels (Ttr RNA) [%] | potency of aCD71-SPRN versus co-administration (A431 cells [1]; [3]) | efficacy enhancement of aCD71-SPRN (A431 cells [1]; saponin component 48 hrs) | potency of aCD71-SPRN versus co-administration (A431 cells [1]; [4]) | relative cell viability, efficacy of aCD71-SPRN (A431 cells [1]) | Cy5 fluorescence state at end of experiment at 160 hrs (A431 cells [2])
1 | CC(=O)OC1C(C)OC(OC2C(C)OC(OC(=O)[C@]34CCC(C)(C)CC3C3=CCC5[C@@]6(C)CC[C@H](OC7OC(C(=O)O)C(O)C(OC8OCC(O)C(O)C8O)C7OC7OC(CO)C(O)C(O)C7O)[C@@](C)(/C=N/NC(=O)CCCCCN7C(=O)CC(SCCO)C7=O)C6CC[C@@]5(C)[C@]3(C)C[C@H]4O)C(OC3OC(C)C(OC4OCC(O)C(OC5OC(CO)C(O)C(O)C5O)C4O)C(O)C3O)C2O)C(O)C1OC1OCC(O)C(O)C1O (some centres unmarked) [SO1861-AH-Maleimide-Block] | 3 | very comparable to the co-administration | still apparent | comparable high potency | reduces cell viability | 
2 | CC(=O)O[C@H]1[C@H](O[C@@H]2OC[C@@H](O)[C@H](O)[C@H]2O)[C@@H](O)[C@H](O[C@@H]2[C@H](O)[C@@H](O[C@@H]3O[C@@H](C)[C@H](O[C@@H]4OC[C@@H](O)[C@H](O[C@@H]5O[C@H](CO)[C@@H](O)[C@H](O)[C@H]5O)[C@H]4O)[C@@H](O)[C@H]3O)[C@H](OC(=O)[C@]34CCC(C)(C)C[C@H]3C3=CC[C@@H]5[C@@]6(C)CC[C@H](O[C@@H]7O[C@H](C(=O)O)[C@@H](O)[C@H](O[C@@H]8OC[C@@H](O)[C@H](O)[C@H]8O)[C@H]7O[C@@H]7O[C@H](CO)[C@H](O)[C@H](O)[C@H]7O)[C@@](C)(C=O)[C@@H]6CC[C@@]5(C)[C@]3(C)C[C@H]4O)O[C@@H]2C)O[C@@H]1C [SO1861] | 10 | very comparable to the co-administration | still apparent | comparable high potency | reduces cell viability | zero fluorescent state
